Measured values reported in patent publication US10196389B2, “One class of pyrazolone compounds and use thereof” (SHANGHAI INSTITUTE OF MATERIA MEDICA, CHINESE ACADEMY OF …, priority 2014, dated 2019).
pEC50: −log10 of the molar value.

Tests used:
[1] = target: T1, human AMPK (α2β1γ1) (Homo sapiens, UniProt P54619+P54646+Q9Y478); assay: AMPK (α2β1γ1) activation at molecular level, HTRF KinEASE-STK S1 kinase assay; assay type: biochemical; details: for Activation ratio (Fold) / pEC50: activation of human AMPK (α2β1γ1), 4 μM ATP, 45 min at 30° C.
T1 construct: made in house; host or cells: E. coli
T1 sequence (P54646 whole entry): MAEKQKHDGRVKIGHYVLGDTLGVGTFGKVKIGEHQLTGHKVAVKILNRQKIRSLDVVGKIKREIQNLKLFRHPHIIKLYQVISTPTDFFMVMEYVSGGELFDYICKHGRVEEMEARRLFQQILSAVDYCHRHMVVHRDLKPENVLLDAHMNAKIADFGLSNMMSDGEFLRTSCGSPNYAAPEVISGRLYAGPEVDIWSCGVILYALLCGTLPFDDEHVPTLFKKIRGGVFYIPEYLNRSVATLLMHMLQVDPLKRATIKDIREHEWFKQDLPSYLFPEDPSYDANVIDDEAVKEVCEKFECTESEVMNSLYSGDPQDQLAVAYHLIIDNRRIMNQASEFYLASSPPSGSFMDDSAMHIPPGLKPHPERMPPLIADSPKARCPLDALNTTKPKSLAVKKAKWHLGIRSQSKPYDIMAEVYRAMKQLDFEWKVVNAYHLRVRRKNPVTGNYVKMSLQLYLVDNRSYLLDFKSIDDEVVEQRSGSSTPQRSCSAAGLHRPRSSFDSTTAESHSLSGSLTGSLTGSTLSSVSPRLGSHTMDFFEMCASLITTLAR
T1 sequence (Q9Y478 whole entry): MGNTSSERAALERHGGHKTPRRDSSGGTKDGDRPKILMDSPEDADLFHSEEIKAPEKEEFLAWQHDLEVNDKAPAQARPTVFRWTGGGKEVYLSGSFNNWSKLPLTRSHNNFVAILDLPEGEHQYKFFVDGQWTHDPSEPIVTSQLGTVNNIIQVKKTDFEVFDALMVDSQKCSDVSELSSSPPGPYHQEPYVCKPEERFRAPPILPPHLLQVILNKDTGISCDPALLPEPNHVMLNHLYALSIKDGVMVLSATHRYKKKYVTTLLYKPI
T1 sequence (P54619 whole entry): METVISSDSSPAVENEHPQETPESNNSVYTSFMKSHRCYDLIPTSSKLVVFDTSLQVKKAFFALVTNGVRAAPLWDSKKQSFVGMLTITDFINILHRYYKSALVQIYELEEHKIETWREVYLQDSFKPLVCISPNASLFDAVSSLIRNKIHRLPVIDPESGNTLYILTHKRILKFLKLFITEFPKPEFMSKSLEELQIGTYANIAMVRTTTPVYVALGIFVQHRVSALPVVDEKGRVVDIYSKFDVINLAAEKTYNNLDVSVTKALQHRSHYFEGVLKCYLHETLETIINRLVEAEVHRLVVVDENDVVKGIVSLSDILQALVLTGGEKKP
Procedure: 1. Purpose of the experiment: To screen small molecule compounds that can activate AMPK (α2β1γ1).
2. Principle of the experiment: The peptide as substrate contains sites which can be AMPK phosphorylated. One terminal of the peptide is linked with biotin in the reaction system (containing 2 mM MgCl2, 400 μM DTT, 160 nM substrate peptide, 4 μM ATP and 1.6 nM AMPK). In the biotinylated terminal, biotin can link with streptavidin-XL665 (acceptor) so as to complete the labeling. After 45 minute of phosphorylation reaction, the phosphorylated substrate (i.e., product) can bind to an antibody (labeled Donor) which recognizes the phosphorylating site, and the biotin on the other terminal can linked to streptavidin-XL665 (acceptor) so that the resulting FRET signal can be detected with PE Evision. The final AMPK activity is expressed as a ratio of the 665 nm wavelength reading to the 615 nm wavelength reading (665 nm/615 nm).
3. Detection reagent: The human AMPK (α2β1γ1) protein was obtained by expression using an E. coli expression system and purification. HTRF KinEASE-STK S1 kit (purchased from Cisbio's); ATP (purchased from Sigma).
1) 200 nM AMPK (α2β1γ1) protein was incubated with 200 nM CaMKKβ at 30° C. for 4 hours in water bath to completely phosphorylate AMPK.
2) The enzyme reaction system (2 mM MgCl2, […], 160 nM substrate peptide, 4 µM ATP, and 1.6 nM AMPK) was prepared by using a white shallow plate purchased from PE. The reaction was reacted at 30° C. for 45 minutes. Phosphorylated recognizing peptides of the antibody and the XL665 Detection buffer were added and the mixture was incubated at room temperature for 3 hours before the signals were detected.

[2] = system: AMPK and ACC phosphorylation on L6 myotubes; assay: AMPK and ACC phosphorylation on L6 myotubes (western blot); assay type: cell-based; details: L6 muscle cells treated for 1 hour, FIGS. 2A and 2B
Procedure: (§1) 2. Experimental principle: Small molecule compounds allosterically activate AMPK and cause the phosphorylation of substrate acetyl-CoA carboxylase (ACC) at Ser-79-site.
(§2) 3. Detection reagents: AMPK, phospho-AMPK (T172), phospho-ACC (S79), and total ACC antibodies were purchased from Cell Signaling Technology.
(§3) 1) The cells were exchanged into serum-free medium and starved for two hours, and compounds were added to treat (in 0.4% DMSO) for 1 hour. The cells to be harvested were washed with PBS once. 1×SDS gel loading buffer (50 mM Tris (pH6.8), 100 mM DTT, 2% SDS, 10% glycerol, 0.1% bromophenol blue) was added to lysis cells (24 well plates, […] per well).
(§4) 2) The sample was heated at 100° C. for 10 minutes and then centrifuged at 12000 g for 10 minutes. The supernatant was subjected to SDS-PAGE electrophoresis under following condition: spacer gel: 70 volts, and separation gel: 90 volts.
(§5) 3) After electrophoresis, the proteins were transferred onto nitrocellulose membrane using Biorad wet electrical transduction system. After the desired band was cut, the strips were blocked in a blocking solution (TBST, containing 5% BSA) for 1 hour at room temperature. The strips were place in a solution containing the primary antibody and incubated overnight at 4° C.
(§6) 4) On next day, the target band was placed in TBST and washed at room temperature for 10 minutes (3 times). […]

[3] = system: AMPK and ACC phosphorylation on SD rat primary hepatocytes; assay: AMPK and ACC phosphorylation on SD rat primary hepatocytes (western blot); assay type: cell-based; details: primary hepatocytes of SD rats, different concentrations, FIG. 4
Procedure: as §1, §2, §3, §4, §5, §6

[4] = system: AMPK and ACC phosphorylation on HepG2 cells; assay: AMPK and ACC phosphorylation on HepG2 cells (western blot); assay type: cell-based; details: different concentrations, FIG. 3
Procedure: as §1, §2, §3, §4, §5, §6

Row | Compound | Activation ratio (Fold) [1] | pEC50 [1] | also measured
1 | Nc1ncnc2c1ncn2[C@@H]1O[C@H](COP(=O)(O)O)[C@@H](O)[C@H]1O [AMP, reference compound] | 2.6 Fold | 6.52 | –
2 | COc1ccc(CNC(=O)c2ccc(CN3C=C4C(=O)N(c5ccc(F)c(C(F)(F)F)c5)N=C4CC3)cc2)cc1OC [ZM-1] | 3.3 Fold | 5.68 | AMPK activation at the cellular level [2]: dose-dependently activated; downstream phosphorylation levels of ACC [2]: increased accordingly; AMPK activation [3]: activate AMPK; phosphorylation of ACC [3]: upregulate phosphorylation of ACC in a concentration or gradient dependent manner; allosteric activation of AMPK in molecular level ([1]; Table 1 and FIG. 1): significantly and allosterically activate AMPK; AMPK activation [4]: activate AMPK; phosphorylation of ACC [4]: upregulate phosphorylation of ACC in a concentration or gradient dependent manner
3 | COC(=O)c1ccc(CN2C=C3C(=O)N(c4ccc(F)c(C(F)(F)F)c4)N=C3CC2)cc1 [ZM-2, Methyl 4-((2-(4-fluoro-3-(trifluoromethyl)phenyl)-3-oxo-6,7-dihydro-2H-pyrazolo[4,3-c]pyridin-5(3H)-yl)methyl)benzoic acid] | – | 5.24 | –
4 | COC(=O)c1ccc(CN2CCC3=NN(c4ccc(F)c(C(F)(F)F)c4)C(=O)C3C2)cc1 (stereo not drawn) [ZM-3, Methyl 4-((2-(4-fluoro-3-(trifluoromethyl)phenyl)-3-oxo-3a,4,6,7-tetrahydro-2H-pyrazolo[4,3-c]pyridin-5(3H)-yl)methyl)benzoic acid] | – | 5.01 | –
5 | COC(=O)c1cccc(CN2CCC3=NN(c4ccc(F)c(C(F)(F)F)c4)C(=O)C3C2)c1 (stereo not drawn) [ZM-4] | 3.2 Fold | 5.08 | –
6 | COc1ccc(CNC(=O)c2ccc(CN3CCc4c(c(=O)n(-c5ccc(F)c(C(F)(F)F)c5)n4C)C3)cc2)cc1OC [ZM-5] | 3.6 Fold | 5.48 | –
7 | O=C(NCc1ccccc1)c1ccc(CN2C=C3C(=O)N(c4ccc(F)c(C(F)(F)F)c4)N=C3CC2)cc1 [ZM-8] | 3.0 Fold | 5.07 | –
8 | CCNC(=O)c1ccc(CN2C=C3C(=O)N(c4ccc(F)c(C(F)(F)F)c4)N=C3CC2)cc1 [ZM-10] | 2.7 Fold | 5.00 | –
9 | O=C(NCc1ccc2c(c1)OCO2)c1ccc(CN2C=C3C(=O)N(c4ccc(F)c(C(F)(F)F)c4)N=C3CC2)cc1 [ZM-12] | 3.0 Fold | 5.30 | –
10 | O=C(NCc1cccc2c1OCO2)c1ccc(CN2C=C3C(=O)N(c4ccc(F)c(C(F)(F)F)c4)N=C3CC2)cc1 [ZM-13] | 2.5 Fold | 5.48 | –
11 | C[C@@H](NC(=O)c1ccc(CN2C=C3C(=O)N(c4ccc(F)c(C(F)(F)F)c4)N=C3CC2)cc1)c1ccccc1 [ZM-14] | 2.5 Fold | 5.01 | –
12 | O=C(NCC1CCCCC1)c1ccc(CN2C=C3C(=O)N(c4ccc(F)c(C(F)(F)F)c4)N=C3CC2)cc1 [ZM-15] | 2.2 Fold | 5.24 | –
13 | COc1ccc(CNC(=O)c2ccc(CN3C=C4C(=O)N(c5ccc(F)c(C(F)(F)F)c5)N=C4CC3)c(C)c2)cc1OC [ZM-19] | 2.6 Fold | 5.25 | –
14 | COc1cc(F)c(CNC(=O)c2ccc(CN3C=C4C(=O)N(c5ccc(F)c(C(F)(F)F)c5)N=C4CC3)cc2)cc1OC [ZM-20] | 2.8 Fold | 5.36 | –
15 | CCOc1ccc(CNC(=O)c2ccc(CN3CCc4c(c(=O)n(-c5ccc(F)c(C(F)(F)F)c5)n4C)C3)cc2)cc1OC [ZM-24] | 2.8 Fold | 5.60 | –
16 | COc1cc(CNC(=O)c2ccc(CN3CCc4c(c(=O)n(-c5ccc(F)c(C(F)(F)F)c5)n4C)C3)cc2)ccc1OC(C)C [ZM-25] | 3.1 Fold | 5.60 | –
17 | CCOc1cc(CNC(=O)c2ccc(CN3CCc4c(c(=O)n(-c5ccc(F)c(C(F)(F)F)c5)n4C)C3)cc2)ccc1OC [ZM-26] | 2.3 Fold | 5.52 | –
18 | COc1ccc(C2(NC(=O)c3ccc(CN4C=C5C(=O)N(c6ccc(F)c(C(F)(F)F)c6)N=C5CC4)cc3)CC2)cc1OC [ZM-28] | 2.6 Fold | 5.49 | –
19 | O=C(NCc1ccc(OC(F)F)c(OC(F)F)c1)c1ccc(CN2C=C3C(=O)N(c4ccc(F)c(C(F)(F)F)c4)N=C3CC2)cc1 [ZM-31] | 3.1 Fold | 5.27 | –
20 | COc1ccc(CNC(=O)c2ccc(CN3CCC4=NN(c5ccc(F)c(C(F)(F)F)c5)C(=O)C4(C)C3)cc2)cc1OC (stereo not drawn) [ZM-33] | 2.7 Fold | 5.11 | –
21 | [2H]C([2H])([2H])Oc1ccc(CNC(=O)c2ccc(CN3C=C4C(=O)N(c5ccc(F)c(C(F)(F)F)c5)N=C4CC3)cc2)cc1OC [ZM-34] | 2.1 Fold | 5.20 | –

Second part, led by results:

Row | Activation ratio (Fold) [1] | pEC50 [1] | Compound | also measured
22 | 3.0 Fold | 5.96 | COc1ccc(CN(C)C(=O)c2ccc(CN3C=C4C(=O)N(c5ccc(F)c(C(F)(F)F)c5)N=C4CC3)cc2)cc1OC [ZM-6] | –
23 | 2.7 Fold | 5.34 | COc1ccc(CNC(=O)c2cccc(CN3C=C4C(=O)N(c5ccc(F)c(C(F)(F)F)c5)N=C4CC3)c2)cc1OC [ZM-7] | –
24 | 2.8 Fold | 5.28 | COc1cccc(CNC(=O)c2ccc(CN3C=C4C(=O)N(c5ccc(F)c(C(F)(F)F)c5)N=C4CC3)cc2)c1 [ZM-9] | –
25 | 3.5 Fold | 5.12 | COc1cc(CNC(=O)c2ccc(CN3C=C4C(=O)N(c5ccc(F)c(C(F)(F)F)c5)N=C4CC3)cc2)cc(OC)c1OC [ZM-11] | –
26 | 3.2 Fold | 5.25 | COc1ccc(CNC(=O)c2ccc(CN3C=C4C(=O)N(c5cccc(C(F)(F)F)c5)N=C4CC3)cc2)cc1OC [ZM-16] | –
27 | 2.1 Fold | 5.02 | COc1ccc(CNC(=O)c2ccc(CN3C=C4C(=O)N(c5ccc(S(N)(=O)=O)cc5)N=C4CC3)cc2)cc1OC [ZM-17] | –
28 | 2.8 Fold | 5.20 | COc1ccc(CNC(=O)c2ccc(CN3C=C4C(=O)N(c5nc6ccccc6s5)N=C4CC3)cc2)cc1OC [ZM-18] | –
29 | 2.2 Fold | 5.40 | COc1ccc(C(C)(C)NC(=O)c2ccc(CN3C=C4C(=O)N(c5ccc(F)c(C(F)(F)F)c5)N=C4CC3)cc2)cc1OC [ZM-21] | –
30 | 2.9 Fold | 5.17 | CCOc1cc(CNC(=O)c2ccc(CN3C=C4C(=O)N(c5ccc(F)c(C(F)(F)F)c5)N=C4CC3)cc2)ccc1OC [ZM-22] | –
31 | 3.0 Fold | 5.27 | CCOc1ccc(CNC(=O)c2ccc(CN3C=C4C(=O)N(c5ccc(F)c(C(F)(F)F)c5)N=C4CC3)cc2)cc1OC [ZM-23] | –
32 | 2.3 Fold | 5.30 | COc1cc(CNC(=O)c2ccc(CN3C=C4C(=O)N(c5ccc(F)c(C(F)(F)F)c5)N=C4CC3)cc2)ccc1OC(F)F [ZM-27] | –
33 | 2.9 Fold | 5.01 | COc1cc(CNC(=O)c2ccc(CN3C=C4C(=O)N(c5ccc(F)c(C(F)(F)F)c5)N=C4CC3)cc2)ccc1OC(C)C [ZM-29] | –
34 | 2.7 Fold | 5.07 | COc1cc(CNC(=O)c2ccc(CN3C=C4C(=O)N(c5ccc(F)c(C(F)(F)F)c5)N=C4CC3)cc2)ccc1O [ZM-30] | –
35 | 2.4 Fold | 5.39 | COc1ccc(CNC(=O)c2ccc(CN3C=C4C(=O)N(c5ccc(F)c(C(F)(F)F)c5)N=C4CC3)cc2)cc1OC(F)F [ZM-32] | –
